In US20190223483A1, “SENSORY MODIFIER COMPOUNDS” (CARGILL, INCORPORATED, priority 2017, published 2019):
Several values for one entry are separate records, joined by “and”; a condition that tells them apart may be missing. Equal values may be shown once. Entries after “also recorded” stand apart in the source; their conditions may differ.

Legend:
[1] = Roundtable assessment of sweetness linger (scale 0 to 6); assay type: in vivo; design: key: 0 = none; 1 = trace/faint; 2 = slight; 3 = moderate; 4 = definite; 5 = strong; 6 = extreme
Description: In some aspects, the amount of sensory modifier compound effective to […] can be determined by panel testing with trained panelists. For example, sweetness linger can be determined by the following test: For other sweetness attributes, the solutions were tested by a panel of at least four individuals that are highly-trained in tasting steviol glycoside solutions. The highly-trained panelists used a roundtable methodology to assess each sweetness attribute. To test each solution, the highly-trained panelists dispensed approximately 2 mL of each solution into their own mouths by transfer pipet, dispersed the solution by moving their tongues, and recorded a value for the particular sweetness attribute being tested. Between tasting solutions, the panelists were able to cleanse their palates with water. For each sweetness attribute, the panelist agreed on a descriptive scale with relative intensities assigned for each sweetness attribute and then recorded the values for each sweetness attribute against this. For example, this roundtable assessment of sweetness linger assigned a scale of 0 to 6 with a score of 0 indicating no sweetness linger and a score of 6 indicating extreme sweetness linger. Roundtable assessment of sweetness linger assigned a scale of 0 to 6 with a score of 0 indicating no sweetness linger and a score of 6 indicating extreme sweetness linger (0=none, 1=trace, 2=slight, 3=moderate, 4=definite, 5=strong, 6=extreme). Roundtable assessment of rounded assigned a scale of 0 to 3 with a score of 0 indicating spikey and a score of 3 indicating desirable rounded (0=none, 1=mostly spikey, some rounded, 2=mostly rounded, some spikey, 3=rounded). Roundtable assessment of mouthfeel assigned a scale of 0 to 2 with a score of 0 indicating water and a score of 2 indicating syrupy (0=water, 1=sucrosey, 2=syrupy). Roundtable assessment of bitterness assigned a scale of 0 to 6 with a score of 0 indicating no bitterness and a score of 6 indicating extreme sweetness linger (0=none, 1=trace, 2=slight, 3=moderate, 4=definite, 5=strong, 6=extreme). Roundtable assessment of off tastes assigned a scale of 0 to 6 with a score of 0 indicating no bitterness and a score of 6 indicating extreme off tastes (0=none, 1=trace, 2=slight, 3=moderate, 4=definite, 5=strong, 6=extreme). […] Roundtable assessment of botanical notes assigned a scale of 0 to 5 with a score of 0 indicating no botanical notes and a score of 5 indicating strong (0=none, 1=trace, 2=slight, 3=moderate, 4=definite, 5=strong). Exemplary tests are recorded below in Example 1.
For other sweetness attributes, the solutions were tested by a panel of at least four individuals that are highly-trained in tasting steviol glycoside solutions. The highly-trained panelists used a roundtable methodology to assess each sweetness attribute. To test each solution, the highly-trained panelists dispensed approximately 2 mL of each solution into their own mouths by transfer pipet, dispersed the solution by moving their tongues, and recorded a value for the particular sweetness attribute being tested. Between tasting solutions, the panelists were able to cleanse their palates with water. For each sweetness attribute, the panelist agreed on a descriptive scale with relative intensities assigned for each sweetness attribute and then recorded the values for each sweetness attribute against this. For example, this roundtable assessment of sweetness linger assigned a scale of 0 to 6 with a score of 0 indicating no sweetness linger and a score of 6 indicating extreme sweetness linger. Roundtable assessment of sweetness linger assigned a scale of 0 to 6 with a score of 0 indicating no sweetness linger and a score of 6 indicating extreme sweetness linger (0=none, 1=trace, 2=slight, 3=moderate, 4=definite, 5=strong, 6=extreme). […]

[2] = Roundtable assessment of off taste (scale 0 to 6); assay type: in vivo; design: key to Off taste / off taste score: 0 = none; 1 = trace/faint; 2 = slight; 3 = moderate; 4 = definite; 5 = strong; 6 = extreme
Description: For other sweetness attributes, the solutions were tested by a panel of at least four individuals that are highly-trained in tasting steviol glycoside solutions. The highly-trained panelists used a roundtable methodology to assess each sweetness attribute. To test each solution, the highly-trained panelists dispensed approximately 2 mL of each solution into their own mouths by transfer pipet, dispersed the solution by moving their tongues, and recorded a value for the particular sweetness attribute being tested. Between tasting solutions, the panelists were able to cleanse their palates with water. For each sweetness attribute, the panelist agreed on a descriptive scale with relative intensities assigned for each sweetness attribute and then recorded the values for each sweetness attribute against this. For example, this roundtable assessment of sweetness linger assigned a scale of 0 to 6 with a score of 0 indicating no sweetness linger and a score of 6 indicating extreme sweetness linger. Roundtable assessment of sweetness linger assigned a scale of 0 to 6 with a score of 0 indicating no sweetness linger and a score of 6 indicating extreme sweetness linger (0=none, 1=trace, 2=slight, 3=moderate, 4=definite, 5=strong, 6=extreme). Roundtable assessment of rounded assigned a scale of 0 to 3 with a score of 0 indicating spikey and a score of 3 indicating desirable rounded (0=none, 1=mostly spikey, some rounded, 2=mostly rounded, some spikey, 3=rounded). Roundtable assessment of mouthfeel assigned a scale of 0 to 2 with a score of 0 indicating water and a score of 2 indicating syrupy (0=water, 1=sucrosey, 2=syrupy). Roundtable assessment of bitterness assigned a scale of 0 to 6 with a score of 0 indicating no bitterness and a score of 6 indicating extreme sweetness linger (0=none, 1=trace, 2=slight, 3=moderate, 4=definite, 5=strong, 6=extreme). Roundtable assessment of off tastes assigned a scale of 0 to 6 with a score of 0 indicating no bitterness and a score of 6 indicating extreme off tastes (0=none, 1=trace, 2=slight, 3=moderate, 4=definite, 5=strong, 6=extreme).
A series of assays were carried out to characterize off taste (0=none, 1=trace/faint, 2=slight, 3=moderate, 4=definite, 5=strong, 6=extreme) of steviol glycoside compositions with sensory modifier compound using the roundtable methodology described in Example 1. […] Solutions of steviol glycosides and sensory modifier compound were prepared at increasing ratios of sensory modifier to steviol glycoside by weight. The steviol glycosides were RebA (4 glycoside groups), RebD (5 glycoside groups), RebM (6 glycoside groups), and OPS1-5(7 glycoside groups) and the sensory modifier compound was monocaffeoylquinic and dicaffeoylquinic acids prepared from yerba mate. The concentration of steviol glycosides was 700 ppm in each solution. The solutions were tested for off taste. Off taste included astringency, metallic, powdery, numbing, and vapory attributes.

[3] = RebM 700 ppm + cichoric acid (tartaric backbone) […]
[4] = RebM 700 ppm + rosmarinic acid 195 ppm
[5] = RebM 700 ppm + rosmarinic acid 586 ppm
[6] = steviol glycoside 700 ppm + yerba mate mono/dicaffeoylquinic acids 236 ppm
[7] = steviol glycoside 700 ppm + yerba mate mono/dicaffeoylquinic acids 300 ppm
[8] = steviol glycoside 700 ppm + yerba mate mono/dicaffeoylquinic acids 400 ppm
[9] = steviol glycoside 700 ppm + yerba mate mono/dicaffeoylquinic acids 472 ppm
[10] = steviol glycoside 700 ppm + yerba mate mono/dicaffeoylquinic acids 500 ppm
[11] = steviol glycoside 700 ppm + yerba mate mono/dicaffeoylquinic acids 600 ppm
[12] = steviol glycoside 700 ppm + yerba mate mono/dicaffeoylquinic acids 700 ppm
[13] = steviol glycoside 700 ppm + yerba mate mono/dicaffeoylquinic acids 708 ppm
[14] = steviol glycoside 700 ppm + yerba mate mono/dicaffeoylquinic acids 800 ppm
[15] = steviol glycoside 700 ppm, sensory modifier 0 ppm
[16] = steviol glycoside 700 ppm + yerba mate mono/dicaffeoylquinic acids 270 ppm
[17] = steviol glycoside 700 ppm + yerba mate mono/dicaffeoylquinic acids 630 ppm
[18] = steviol glycoside 700 ppm + yerba mate mono/dicaffeoylquinic acids 946 ppm
[19] = steviol glycoside 700 ppm + yerba mate mono/dicaffeoylquinic acids […]

C=C1C[C@@]23CC[C@H]4[C@@](C)(CCC[C@@]4(C)C(=O)O[C@@H]4O[C@H](CO)[C@@H](O)[C@H](O[C@@H]5O[C@H](CO)[C@@H](O)[C@H](O)[C@H]5O)[C@H]4O[C@@H]4O[C@H](CO)[C@@H](O)[C@H](O)[C@H]4O)[C@@H]2CC[C@]1(O[C@@H]1O[C@H](CO)[C@@H](O)[C@H](O[C@@H]2O[C@H](CO)[C@@H](O)[C@H](O)[C@H]2O)[C@H]1O[C@@H]1O[C@H](CO)[C@@H](O)[C@H](O)[C@H]1O)C3 [RebM, Rebaudioside M]
Sweetness linger ([1]; 1:1 molar ratio with tartaric acid backbone modifier): no perceptible linger
Sweetness linger ([1]; 1:2 molar ratio with quinic acid backbone modifier): no perceptible linger
Sweetness linger ([1]; RebM 700 ppm + cichoric acid (tartaric backbone) 514 ppm): 0
Sweetness linger ([1]; RebM 700 ppm + cichoric acid (tartaric backbone) 772 ppm): 0
Sweetness linger [1, 3]: 0
Sweetness linger [1, 4]: 6
Sweetness linger ([1]; RebM 700 ppm + rosmarinic acid 391 ppm): 3
Sweetness linger [1, 5]: 2
Sweetness linger ([1]; RebM 700 ppm, above about 300 ppm quinic backbone modifier): not perceptible
Sweetness linger ([1]; RebM 700 ppm, at or before about 200 ppm quinic backbone modifier): slight
Sweetness linger [1, 6]: 2
Sweetness linger [1, 7]: 2
Sweetness linger [1, 8]: 0
Sweetness linger [1, 9]: 0
Sweetness linger [1, 10]: 0
Sweetness linger [1, 11]: 0
Sweetness linger [1, 12]: 0 and 2
Sweetness linger [1, 13]: 0
Sweetness linger [1, 14]: 0
Sweetness linger [1, 15]: 6
Off taste [2, 3]: 0
Off taste [2, 4]: 0
Off taste [2, 5]: 0
off taste ([2]; RebM 700 ppm, about 200 ppm and above of sensory modifier): not perceptible; also recorded: between slight and none
off taste ([2]; quinic, tartaric or 3-(3,4-dihydroxyphenyl)lactic acid backbone modifier above 200 ppm): none
Off taste [2, 6]: 0
Off taste [2, 7]: 0
Off taste [2, 8]: 2
Off taste [2, 9]: 0
Off taste [2, 10]: 0
Off taste [2, 11]: 2
Off taste [2, 12]: 0
Off taste [2, 13]: 0
Off taste [2, 14]: 2
Off taste [2, 15]: 5

C=C1C[C@@]23CC[C@H]4[C@@](C)(CCC[C@@]4(C)C(=O)O[C@@H]4O[C@H](CO)[C@@H](O)[C@H](O)[C@H]4O[C@@H]4O[C@H](CO)[C@@H](O)[C@H](O)[C@H]4O)[C@@H]2CC[C@]1(O[C@@H]1O[C@H](CO)[C@@H](O)[C@H](O[C@@H]2O[C@H](CO)[C@@H](O)[C@H](O)[C@H]2O)[C@H]1O[C@@H]1O[C@H](CO)[C@@H](O)[C@H](O)[C@H]1O)C3 [RebD, Rebaudioside D]
Sweetness linger [1, 16]: 3
Sweetness linger ([1]; steviol glycoside 700 ppm + yerba mate mono/dicaffeoylquinic acids 540 ppm): 2
Sweetness linger ([1]; steviol glycoside 700 ppm + yerba mate mono/dicaffeoylquinic acids 810 ppm): 1
Sweetness linger ([1]; steviol glycoside 700 ppm, about 200 ppm sensory modifier): reduced to commercially palatable levels
Sweetness linger [1, 15]: 3
Off taste [2, 16]: 2
Off taste [2, 15]: 2

C=C1C[C@@]23CC[C@H]4[C@@](C)(CCC[C@@]4(C)C(=O)O[C@@H]4O[C@H](CO)[C@@H](O)[C@H](O)[C@H]4O)[C@@H]2CC[C@]1(O[C@@H]1O[C@H](CO)[C@@H](O)[C@H](O[C@@H]2O[C@H](CO)[C@@H](O)[C@H](O)[C@H]2O)[C@H]1O[C@@H]1O[C@H](CO)[C@@H](O)[C@H](O)[C@H]1O)C3 [RebA, Rebaudioside A]
Sweetness linger [1, 17]: Not observed
Sweetness linger [1, 18]: Not observed
Sweetness linger [1, 19]: Not observed
Sweetness linger [1, 15]: Not observed
off taste score ([2]; RebA 700 ppm, higher concentrations of sensory modifier): 2
Off taste [2, 17]: 2
Off taste [2, 18]: 2
Off taste [2, 19]: 2
Off taste [2, 15]: 6
